Measurements as given in patent publication US9156872B2, “2′-azido substituted nucleoside derivatives and methods of use thereof for the treatment of viral diseases” (priority 2011, dated 2015).
Read-outs that look alike come from different tables or passages of the source.

Experiments:
[1] = molecular target: HCV NS5B RNA-dependent RNA polymerase (1b-BKΔ55) (Hepatitis C virus genotype 1b, UniProt P26663); test: biochemical
replicon cells (1b-Con1) = test: Replicon activity assay (1b-Con1 replicon cells, real-time RT-PCR); assay type: cell-based, HCV; settings: Hepatitis C virus, 72 h, read-out: Replicon (1b) EC50
replicon cells [2] = system: replicon cells
replicon cells [3] = test: Cytotoxicity in replicon cells (MTS assay, CellTiter 96); settings: CC50, MTS assay, three days post dosing

HCV NS5B RNA-dependent RNA polymerase (1b-BKΔ55), sequence (P26663 2420-2955 limits assumed, stated change not applied): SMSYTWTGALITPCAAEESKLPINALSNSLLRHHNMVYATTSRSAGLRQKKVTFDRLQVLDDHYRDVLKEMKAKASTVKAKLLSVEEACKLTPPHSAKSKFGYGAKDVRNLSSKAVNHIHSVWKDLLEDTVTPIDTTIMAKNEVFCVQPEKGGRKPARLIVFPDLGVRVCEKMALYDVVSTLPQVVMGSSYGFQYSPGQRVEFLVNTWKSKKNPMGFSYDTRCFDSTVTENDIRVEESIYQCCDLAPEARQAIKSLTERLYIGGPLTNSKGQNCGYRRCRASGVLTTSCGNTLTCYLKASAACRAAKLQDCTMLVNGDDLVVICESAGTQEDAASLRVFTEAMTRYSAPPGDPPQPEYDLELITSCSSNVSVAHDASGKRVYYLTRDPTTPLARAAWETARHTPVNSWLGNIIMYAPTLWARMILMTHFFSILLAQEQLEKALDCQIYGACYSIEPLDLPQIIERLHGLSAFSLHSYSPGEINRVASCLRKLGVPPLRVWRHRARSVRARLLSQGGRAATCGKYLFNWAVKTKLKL

Row | Compound | IC50 [1] | EC50 (replicon cells (1b-Con1)) | Cytotoxicity (replicon cells [2]) | also measured
1 | C[C@@]1(N=[N+]=[N-])[C@H](O)C(COP(=O)(O)OP(=O)(O)OP(=O)(O)O)O[C@H]1n1ccc(N)nc1=O (some centres unmarked) [Compound 75] | 10000 nM | – | – | –
2 | C[C@@]1(N=[N+]=[N-])[C@H](O)[C@@H](COP(=O)(O)OP(=O)(O)OP(=O)(O)O)O[C@H]1n1ccc(=O)[nH]c1=O [Compound 74] | 55000 nM | – | – | –
3 | CCOC(=O)[C@H](C)NP(=O)(OC[C@H]1O[C@@H](n2cnc3c(OC)nc(N)nc32)[C@](C)(N=[N+]=[N-])[C@@H]1O)Oc1ccccc1 (some centres unmarked) [drawing 880] | – | 400 nM | >100 µM | –
4 | COc1nc(N)nc2c1ncn2C1O[C@@H]2COP(=O)(OC(C)C)O[C@H]2[C@@]1(C)N=[N+]=[N-] (some centres unmarked) | – | – | – | Cytotoxicity (replicon cells [3]): >100 µM; EC50 (replicon cells (1b-Con1); 1b-Con1 replicon cells, three days post-dosing): 8300 nM
5 | CC(C)OC(=O)[C@H](C)NP(=O)(OC[C@H]1O[C@@H](n2ccc(=O)[nH]c2=O)[C@](C)(N=[N+]=[N-])[C@@H]1O)Oc1ccccc1 (some centres unmarked) | – | 3100 nM | >100 µM | –
6 | CCOC(=O)[C@H](C)NP(=O)(OC[C@H]1O[C@@H](n2cnc3c(N4CCC4)nc(N)nc32)[C@](C)(N=[N+]=[N-])[C@@H]1O)Oc1ccccc1 (some centres unmarked) [drawing 882] | – | 1500 nM | >100 µM | –
7 | CC(C)OC(=O)[C@H](C)NP(=O)(OC[C@H]1O[C@@H](n2ccc(N)nc2=O)[C@](C)(N=[N+]=[N-])[C@@H]1O)Oc1ccccc1Cl (some centres unmarked) [drawing 885] | – | 1300 nM | >100 µM | –
8 | CC(C)COC(=O)[C@H](C)NP(=O)(OC[C@H]1O[C@@H](n2ccc(=O)[nH]c2=O)[C@](C)(N=[N+]=[N-])[C@@H]1O)Oc1ccccc1 (some centres unmarked) [drawing 892] | – | 800 nM | 55 µM | –
9 | C[C@@]1(N=[N+]=[N-])[C@H](O)C(COP(=O)(O)OP(=O)(O)OP(=O)(O)O)O[C@H]1n1cnc2c(=O)[nH]c(N)nc21 (some centres unmarked) [Compound 76] | 1700 nM | – | – | –
10 | CC(C)OC(=O)[C@H](C)NP(=O)(OC[C@H]1O[C@@H](n2ccc(=O)[nH]c2=O)[C@](C)(N=[N+]=[N-])[C@@H]1O)Oc1ccc(Cl)c(Cl)c1 (some centres unmarked) [drawing 890] | – | 7600 nM | 42 µM | –
